Data reported in US5399697A, “N,N',N'-trisubstituted-5-bisaminomethylene-1,3-dioxane-4,6-dione inhibitors of acyl-CoA:cholesterol-acyl transferase” (American Home Products Corporation, priority 1993, dated 1995).
Where two headings read alike, the source gives them in different places.

Test system: acyl-coenzyme A: cholesterol acyltransferase
Assay: Inhibition of ACAT / intracellular cholesterol esterification in vitro (procedure of Ross et al.)
Format: cell-based

SMILES	% Inhibition (25 μM)	IC50 (read-out: IC50)	% Inhibition (50 μM)	IC50
CCCCCCCN(Cc1ccc(C(C)(C)C)cc1)C(Nc1ccc(OCCCCCC)cc1)=C1C(=O)OC(C)(C)OC1=O [Compound 25, 5-[[[[4-(1,1-Dimethylethyl)phenyl]methyl]heptylamino][[4-(hexyloxy)phenyl]amino]methylene]2,2-dimethyl-3-dioxane-4,6-dione]	94%	500 nM		
CCCCCCCN(Cc1ccc(C(C)(C)C)cc1)C(Nc1ccc(OCc2ccccc2)cc1)=C1C(=O)OC(C)(C)OC1=O [Compound 26]	92%	920 nM		
CCCCCCCN(Cc1ccc(C(C)(C)C)cc1)C(Nc1ccc(C(F)(F)F)cc1)=C1C(=O)OC(C)(C)OC1=O [Compound 30, 5-[[[[4-(1,1-Dimethylethyl)phenyl]methyl]heptylamino][[4-(trifluoromethyl)phenyl]amino]-methylene]-2,2-dimethyl-1,3-dioxane-4,6-dione]	42%			
CCCCc1ccc(CN(C(Nc2ccc(OC)cc2OC)=C2C(=O)OC(C)(C)OC2=O)C(C)CCCC(C)(C)O)cc1 (centres unmarked) [Compound 44, 5-[[[(4-Butylphenyl)methyl](5-hydroxy-1,5-dimethylhexyl)amino][(2,4-dimethoxyphenyl)-amino]methylene]-2,2-dimethyl-1,3-dioxane-4,6-dione]	82%	15000 nM		
CC(C)Cc1ccc(CN(C(Nc2ccc(N(C)C)cc2)=C2C(=O)OC(C)(C)OC2=O)C2CCN(Cc3ccccc3)CC2)cc1 [Compound 49, 5-[[[4-(Dimethylamino)phenyl]amino][[[4-(2-methylpropyl)phenyl]methyl][1-(phenylmethyl)-4-piperidinyl]amino]methylene]-2,2-dimethyl-1,3-dioxane-4,6-dione]	80%	4500 nM		
COc1ccc(NC(=C2C(=O)OC(C)(C)OC2=O)N(Cc2ccc(CC(C)C)cc2)C(C)CN2CCOCC2)c(OC)c1 (centres unmarked) [Compound 50, 5-[[(2,4-Dimethoxyphenyl)amino][[1-methyl-2-(4-morpholinyl)ethyl][[4-(2-methylpropyl)-phenyl]methyl]amino]methylene]-2,2-dimethyl-1,3-dioxane-4,6-dione]	74%			
CC(C)Cc1ccc(CN(C(Nc2ccc(N(C)C)cc2)=C2C(=O)OC(C)(C)OC2=O)C(C)CN2CCOCC2)cc1 (centres unmarked) [Compound 51]	66%			
CCCCCC(C)N(Cc1ccc(CCC(C)C)cc1)C(Nc1ccc(OC)cc1OC)=C1C(=O)OC(C)(C)OC1=O (centres unmarked) [Compound 56, 5-[[(2,4-Dimethoxyphenyl)amino][[[4-(3-methylbutyl)phenyl]methyl](1-methylhexyl)amino]-methylene]-2,2-dimethyl-1,3-dioxane-4,6-dione]	97%	1400 nM		
CCCCCC(C)N(Cc1ccc(CCC(C)C)cc1)C(Nc1ccc(N(C)C)cc1)=C1C(=O)OC(C)(C)OC1=O (centres unmarked) [Compound 57, 5-[[[4-(Dimethylamino)phenyl]amino][[[4-(3-methylbutyl)phenyl]methyl](1-methylhexyl)-amino]methylene]-2,2-dimethyl-1,3-dioxane-4,6-dione]	96%	410 nM		
CCCCCC(C)N(Cc1ccc(OCC(C)C)cc1)C(Nc1ccc(OC)cc1OC)=C1C(=O)OC(C)(C)OC1=O (centres unmarked) [Compound 58, 5-[[(2,4-Dimethoxyphenyl)amino][(1-methylhexyl)[[4-(2-methylpropoxy)phenyl]methyl]-amino]methylene]-2,2-dimethyl-1,3-dioxane-4,6-dione]	99%	550 nM		
CCCCC(CC)N(Cc1ccc(CC(C)(C)C)cc1)C(Nc1ccc(OC)cc1OC)=C1C(=O)OC(C)(C)OC1=O (centres unmarked) [Compound 60, 5-[[(2,4-Dimethoxyphenyl)amino][[[4-(2,2-dimethylpropyl)phenyl]methyl](1-ethylpentyl)amino]-methylene]-2,2-dimethyl-1,3-dioxane-4,6-dione]	99%	540 nM		
CCCCCC(C)N(Cc1ccc(CCC(C)C)cc1)C(Nc1ccc(N(C)C)cc1C)=C1C(=O)OC(C)(C)OC1=O (centres unmarked) [Compound 61]	98%	160 nM		
CCCCC(CC)N(Cc1ccc(CC(C)(C)C)cc1)C(Nc1ccc(N(C)C)cc1)=C1C(=O)OC(C)(C)OC1=O (centres unmarked) [Compound 62]	99%	640 nM		
CCCCCC(C)N(Cc1ccc(OCC(C)C)cc1)C(Nc1ccc(N(C)C)cc1)=C1C(=O)OC(C)(C)OC1=O (centres unmarked) [Compound 63]	99%	90 nM		
CCCCCC(C)N(Cc1ccc(CC(C)(C)C)cc1)C(Nc1ccc(C)cc1C)=C1C(=O)OC(C)(C)OC1=O (centres unmarked) [Compound 64]	99%	490 nM		
CCCCCCCCCCN(Cc1ccc(C(C)(C)C)cc1)C(Nc1ccc(OC)cc1OC)=C1C(=O)OC(C)(C)OC1=O [Compound 65]	98%	2300 nM		
CCCCC(CC)N(Cc1ccc(CC(C)(C)C)cc1)C(Nc1ccc(N(C)C)cc1C)=C1C(=O)OC(C)(C)OC1=O (centres unmarked) [Compound 66, 5-[[[4-(Dimethylamino)-2-methylphenyl]amino][[[4-(2,2-dimethylpropyl)phenyl]methyl](1-ethylpentyl)amino]methylene]-2,2-dimethyl-1,3-dioxane-4,6-dione]	98%	190 nM		
CCCCCCCN(Cc1ccc(C(C)(C)C)cc1)C(Nc1ccc(F)cc1)=C1C(=O)OC(C)(C)OC1=O [Compound 67]		4500 nM	89%	
CCCCCC(C)N(Cc1ccc(OCC(C)C)cc1)C(Nc1ccc(C)cc1C)=C1C(=O)OC(C)(C)OC1=O (centres unmarked) [Compound 68]	98%	280 nM		
CCCCCCCN(Cc1ccc(C(C)(C)C)cc1)C(Nc1cc(OC)c(OC)c(OC)c1)=C1C(=O)OC(C)(C)OC1=O [Compound 69]	98%	2800 nM		
CCCCCCCC/C=C\CCCCCCCCN(Cc1ccc(C(C)(C)C)cc1)C(Nc1ccc(OC)cc1OC)=C1C(=O)OC(C)(C)OC1=O [Compound 70, 5-[[(2,4-Dimethoxyphenyl)amino][[[4-(1,1-dimethylethyl)phenyl]methyl]((Z)-9-octadecenyl)-amino]methylene]-2,2-dimethyl-1,3-dioxane-2,4-dione]	24%			
COc1ccc(NC(=C2C(=O)OC(C)(C)OC2=O)N(Cc2ccc(CC(C)C)cc2)[C@@H](CO[Si](C)(C)C(C)(C)C)CC(C)C)c(OC)c1 [Compound 71]	97%			530 nM
COc1ccc(NC(=C2C(=O)OC(C)(C)OC2=O)N(Cc2ccc(CCC(C)C)cc2)C(CC(C)C)CC(C)C)c(OC)c1 [Compound 72, 5-[[(2,4-Dimethoxyphenyl)amino][[[4-(3-methylbutyl)phenyl]methyl][-3-methyl-1-(2-methylpropyl)butyl]amino]methylene]-2,2-dimethyl-1,3-dioxane-4,6-dione]	98%	1300 nM		
CC(C)CCc1ccc(CN(C(Nc2ccc(N(C)C)cc2)=C2C(=O)OC(C)(C)OC2=O)C(CC(C)C)CC(C)C)cc1 [Compound 73, 5-[[[4-(Dimethylamino)phenyl]amino][[[4-(3-methylbutyl)phenyl]methyl][3-methyl-1-(2-methylpropyl)butyl]amino]methylene]-2,2-dimethyl-1,3-dioxane-4,6-dione]	97%	1300 nM		
